From article PMC10923852, “Gustavson syndrome is caused by an in-frame deletion in RBMX associated with potentially disturbed SH3 domain interactions” (European Journal of Human Genetics, 2023)
Where a SMILES comes first, the peptide text is derived from it. Where no end group is shown, it is not given here.

Assays:
[1] = biological target: T1, BIN1-SH3 (Homo sapiens, UniProt O00499); assay: Fluorescence polarization saturation binding, BIN1-SH3 domain with FITC-labeled hnRNP G peptide; settings: FITC-labeled peptide 10 nM
T1 construct: GST (cleaved yes); Genecast (peptides); host or cells: E. coli BL21-DE3 GOLD
T1 sequence (O00499 520-593 limits assumed): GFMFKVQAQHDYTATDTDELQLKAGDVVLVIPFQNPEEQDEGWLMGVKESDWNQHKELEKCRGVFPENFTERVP
Procedure: (§1) To further investigate if the tri-proline region spanning the variant had the capacity to interact with SH3 domains, a fluorescence polarization assay with hnRNP G peptides and SH3 domains were performed. Wildtype and mutant (△P162) hnRNP G peptides of different lengths spanning the region of interest (P38159) were ordered from Genecast (Supplementary material 2) with or without Fluorescein isothiocyanate (FITC)-label (purity >95%, dissolved in 50 mM potassium phosphate pH 7.5). Two SH3 domains were expressed and purified: ASAP1-SH3 (Addgene: 91501), BIN1-SH3 (GenScript) according to standard protocol (Supplementary material 2). […]
(§2) To determine the affinity between BIN-SH3 domain and the non-labeled hnRNP G peptides, displacement experiments were performed where the fixed concentration of FITC-labeled peptide and protein was mixed with an increasing concentration of displacer non-labeled peptide. […] All results were analyzed with GraphPad Prism to determine the dissociation constant for labeled peptide and the IC50 values, and Microsoft Excel was used to calculate KD from IC50. All fluorescence polarization experiments were performed in 50 mM potassium phosphate pH 7.5, containing 1 mM tris(2-carboxyethyl)phosphine (TCEP). […]

[2] = biological target: T2, ASAP1-SH3 (Homo sapiens, UniProt Q9ULH1); assay: Fluorescence polarization saturation binding, ASAP1-SH3 domain with FITC-labeled hnRNP G peptide; settings: FITC-labeled peptide 10 nM
T2 construct: Two SH3 domains were expressed and purified: ASAP1-SH3 (Addgene: 91501), BIN1-SH3 (GenScript); GST (cleaved yes); host or cells: E. coli BL21-DE3 GOLD
T2 sequence (Q9ULH1 1067-1129 limits assumed): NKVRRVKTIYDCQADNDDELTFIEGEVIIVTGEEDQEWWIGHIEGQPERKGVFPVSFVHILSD
Procedure: as §1, §2

[3] = biological target: T1, BIN1-SH3; assay: Fluorescence polarization displacement, BIN1-SH3 domain with non-labeled hnRNP G peptides; type: binding; settings: for binding affinity for BIN1-SH3 (in words): fluorescence polarization, 50 mM potassium phosphate pH 7.5, 1 mM TCEP
Procedure: (§3) To further investigate if the tri-proline region spanning the variant had the capacity to interact with SH3 domains, a fluorescence polarization assay with hnRNP G peptides and SH3 domains were performed. Wildtype and mutant (△P162) hnRNP G peptides of different lengths spanning the region of interest (P38159) were ordered from Genecast (Supplementary material 2) with or without Fluorescein isothiocyanate (FITC)-label (purity >95%, dissolved in 50 mM potassium phosphate pH 7.5). Two SH3 domains were expressed and purified: ASAP1-SH3 (Addgene: 91501), BIN1-SH3 (GenScript) according to standard protocol (Supplementary material 2).
(§4) To determine the affinity between BIN-SH3 domain and the non-labeled hnRNP G peptides, displacement experiments were performed where the fixed concentration of FITC-labeled peptide and protein was mixed with an increasing concentration of displacer non-labeled peptide. The mP signal was investigated to determine the IC50 values, which were then converted to dissociation constants as previously described. All results were analyzed with GraphPad Prism to determine the dissociation constant for labeled peptide and the IC50 values, and Microsoft Excel was used to calculate KD from IC50. All fluorescence polarization experiments were performed in 50 mM potassium phosphate pH 7.5, containing 1 mM tris(2-carboxyethyl)phosphine (TCEP).
SH3 domains were expressed by transforming expression constructs into E. coli (BL21-DE3 GOLD) and grown in LB media with 50 µg/ml ampicillin (ASAP1) or 50 µg/ml kanamycin (BIN1) at 37°C until reaching an OD600 of 0.6. Protein expression was induced with 1mM isopropyl-β-thiogalactopyranoside and the protein expression proceeded overnight at 18 °C. Cells were harvested and resuspended in lysis buffer (50 mM Tris/HCl pH 7.8, 10 µg/mL DNase I and RNase A (Hoffman-La Roche, Switzerland), 300 mM NaCl, 4 mM MgCl2, 2 mM CaCl2 and cOmplete EDTA-free Protease Inhibitor Cocktail (Hoffman-La Roche)) and lysed by sonication. Cell lysate was clarified by centrifugation at 20,000 g for 40 min, filtered and transferred to Glutathione Sepharose 4 Fast Flow media (GE Healthcare). After 30-minute incubation, glutathione media was washed with wash buffer (50 mM Tris/HCl pH 7.8 300 mM NaCl, 4 mM DTT), eluted with elution buffer (50 mM Tris/HCl pH 7.8 300 mM NaCl, 4 mM DTT, 10 mM reduced glutathione), and the GST-tag was cleaved overnight with PreScission protease (BIN1) or Thrombin (ASAP1). Next day the cleaved protein was applied to a […] to remove the tag, and pure protein was dialyzed into 50 mM potassium phosphate buffer pH 7.4, and concentrated using the Amicon ultra 15ml centrifugal filters (3kDa cutoff, Merck Millipore, UFC900308). Purity of the sample was analyzed by SDS-PAGE and its identity confirmed by MALDI-TOF mass spectrometry. The sample was then frozen until fluorescence polarization experiments were performed.

[4] = biological target: T2, ASAP1-SH3; assay: Fluorescence polarization displacement, ASAP1-SH3 domain; type: binding
Procedure: as §3
as §4, with “(TCEP). […]” for “(TCEP).”

[5] = biological target: T3, BIN1 SH3 (Homo sapiens, UniProt O00499); assay: fluorescence polarization displacement
T3 chain: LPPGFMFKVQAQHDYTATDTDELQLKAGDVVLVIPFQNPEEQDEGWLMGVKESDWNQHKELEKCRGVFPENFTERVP

[6] = biological target: T4, ASAP1 SH3 (Homo sapiens, UniProt Q9ULH1); assay: fluorescence polarization saturation
T4 chain: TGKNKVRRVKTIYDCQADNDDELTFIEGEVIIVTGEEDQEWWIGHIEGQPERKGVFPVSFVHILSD

[7] = biological target: T3, BIN1 SH3; assay: fluorescence polarization saturation

150-KRGPPPRSGGPPPKRSAPSGPy-170 [hnRNP G aa 150-170, wildtype FITC, FITC-labeled wildtype hnRNP G peptide, residues 150-170]
binding to BIN1-SH3 (in words) [1]: binding with moderate affinities | binding to ASAP1-SH3 (in words) [2]: binding with moderate affinities

C[C@H](NC(=O)[C@H](CO)NC(=O)[C@H](CCCNC(=N)N)NC(=O)[C@H](CCCCN)NC(=O)[C@@H]1CCCN1C(=O)[C@@H]1CCCN1C(=O)[C@@H]1CCCN1C(=O)CNC(=O)CNC(=O)[C@H](CO)NC(=O)[C@H](CCCNC(=N)N)NC(=O)[C@@H]1CCCN1C(=O)[C@@H]1CCCN1C(=O)CNC(=O)[C@H](CCCNC(=N)N)NC(=O)[C@@H](N)CCCCN)C(=O)N1CCC[C@H]1C(=O)N[C@@H](CO)C(=O)NCC(=O)N1CCC[C@H]1C(=O)N[C@@H](Cc1ccc(O)cc1)C(=O)O [hnRNP G aa 150-170, △P162] (H-KRGPPRSGGPPPKRSAPSGPY-OH; N-terminus and C-terminus assumed)
binding affinity for BIN1-SH3 (in words) [3]: no clear difference in binding affinity compared to the wildtype peptide | binding affinity for BIN1-SH3 (in words) ([3]; listed as longer hnRNP G peptide, △P162 variant): no clear difference in SH3 binding affinity between the wildtype and the mutant peptide

C[C@H](NC(=O)[C@H](CO)NC(=O)[C@H](CCCNC(=N)N)NC(=O)[C@H](CCCCN)NC(=O)[C@@H]1CCCN1C(=O)[C@@H]1CCCN1C(=O)[C@@H]1CCCN1C(=O)CNC(=O)CNC(=O)[C@H](CO)NC(=O)[C@@H](N)CCCNC(=N)N)C(=O)N1CCC[C@H]1C(=O)N[C@@H](CO)C(=O)NCC(=O)N[C@@H](Cc1ccc(O)cc1)C(=O)O [hnRNP G aa 156-169, wildtype] (H-RSGGPPPKRSAPSGY-OH; N-terminus and C-terminus assumed)
binding affinity for BIN1-SH3 (in words) [3]: moderate affinities | binding affinity for BIN1-SH3 (in words) ([3]; listed as shorter hnRNP G peptide (aa 156–169)): weaker but comparable affinity | binding affinity for ASAP1-SH3 (in words) [4]: moderate affinities

C[C@H](NC(=O)[C@H](CO)NC(=O)[C@H](CCCNC(=N)N)NC(=O)[C@H](CCCCN)NC(=O)[C@@H]1CCCN1C(=O)[C@@H]1CCCN1C(=O)CNC(=O)CNC(=O)[C@H](CO)NC(=O)[C@@H](N)CCCNC(=N)N)C(=O)N1CCC[C@H]1C(=O)N[C@@H](CO)C(=O)NCC(=O)N[C@@H](Cc1ccc(O)cc1)C(=O)O [hnRNP G aa 156-169, △P162] (H-RSGGPPKRSAPSGY-OH; N-terminus and C-terminus assumed)
binding affinity for BIN1-SH3 (in words) [3]: reduced binding affinity | affinity for BIN1-SH3 relative to wildtype peptide (fold) ([3]; short peptide aa 156–169 △P162 vs wildtype): threefold weaker affinity

B1: hnRNP G 150-170 (peptide)
chain: KRGPPPRSGGPPPKRSAPSGP
Kd [5]: 40 µM

B2: hnRNP G 150-170 (peptide)
chain: KRGPPPRSGGPPPKRSAPSGP
modifications: also: FITC-labeled, site not given here
Kd [6]: ~400 µM | Kd [7]: ~400 µM

B3: hnRNP G 156-169 (peptide)
chain: RSGGPPPKRSAPSG
Kd [5]: 150 µM
